Patent publication US10888545B2, “Compositions and methods for treating estrogen-related medical disorders” (THE BOARD OF TRUSTEES OF THE UNIVERSITY OF ILLINOIS, priority 2012, dated 2021)
Like-named read-outs stand apart in the source and are kept apart here.

Columns and labels:
uteri [1] = assay: Uterine weights of ovariectomized athymic mice (7 weeks); type: in vivo; conditions: following 7 weeks of treatment; 1.5 mg/day p.o. (E2: capsule)
[2] = system: T47D/PKCα xenograft tumors; assay: T47D/PKCα TAM-resistant xenograft tumors (Example 11); type: in vivo, mice; conditions: TTC-352 or raloxifene 1.5 mg/day p.o., seven weeks, also after withdrawal; E2 capsule
T47D:A18/PKCα cells [3] = assay: Colony formation assay in […], T47D:A18/PKCα; type: cell-based; conditions: 3D culture, 10 days; E2 1 nM, BTC 100 nM, TTC-352 100 nM
Method: (§1) Colony formation assay in […] Matrix. […] (Becton Dickinson, Franklin Lakes, N.J. USA) was thawed overnight at 4° C. Twelve-well plates were coated with 200 μL […]/well and incubated at 37° C. for 30 min. Cells were suspended at 5×103 in 400 μL of phenol red-free RPMI 1640 and spread onto pre-gelled […] and allowed to incubate at 37° C. for 30 minutes, and 360 μL of treatment media containing 40 μL […] was then added. Plates were incubated at 37° C. for 10 days; medium containing 10% […] was replaced to the top of the […] every 3 days. Colonies were stained with crystal violet on day 10 and each well was counted by light microscopy (20×).
(§2) These concentrations were selected on the basis of proliferative effects in 2D cultures.

T47D:A18/neo cells [4] = assay: Colony formation assay in […], T47D:A18/neo; type: cell-based; conditions: 3D culture, 10 days; E2 1 nM, BTC 100 nM, TTC-352 100 nM
Method: as §1, §2

T47D:A18/neo tumors = assay: T47D:A18/neo xenograft tumor growth; type: in vivo, mice; conditions: for T47D:A18/neo average tumor size: following seven weeks of treatment, 1.5 mg/day p.o. (E2: capsule); for stimulation of growth of T47D:A18/neo xenograft tumors in vivo: 1.5 mg/day p.o., seven weeks
[5] = system: T47D-Tam1 xenograft tumors; assay: T47D-Tam1 TAM-resistant xenograft tumors (Example 11); type: in vivo, mice; conditions: TTC-352 1.5 mg/day p.o. daily for seven weeks; E2 capsule
T47D:A18/PKCα tumors = assay: T47D:A18/PKCα xenograft tumor regression; type: in vivo, mice; conditions: for T47D:A18/PKCα tumor regression / T47D:A18/PKCα mean tumor size: at two weeks; for T47D:A18/PKCα tumor regression: 1.5 mg/day p.o. (E2: capsule), start ~0.5 cm^2 = 100%; for persistence of T47D:A18/PKCα tumor regression after end of treatment: after two weeks of 1.5 mg/day p.o.; for T47D:A18/PKCα mean tumor size: 1.5 mg/day p.o.
[6] = silastic capsules (1.0 cm) implanted subcutaneously; reference 14; cited from earlier work
[7] = Plasma levels of BTC after oral administration to mice; type: in vivo; conditions: single oral dose 10 mg/kg, ovariectomized athymic nude mice
T47D:A18/neo cells [8] = assay: DNA growth assay (2D culture), T47D:A18/neo; type: cell-based; conditions: only the higher concentration, 100 nM, E2 1 nM
T47D:A18/PKCα cells [9] = assay: DNA growth assay (2D culture), T47D:A18/PKCα; type: cell-based; conditions: E2-free media, 1 nM, 10 nM, 100 nM
[10] = Body weights of mice bearing T47D:A18/neo tumors; type: in vivo; conditions: seven week treatment, 1.5 mg/day p.o.
Source text: B) Body weights of treated mice from (A). C) Uterine weights from mice in (A). Weights are reported as uterine weight (mg)/body weight (g). *, P<0.05 versus control. Graphs show mean SEM.
Since BTC and TTC-352 treatment result in growth of T47D:A18/neo cells in 2D culture (FIGS. 1C and 1E) and in 3D […] (FIG. 2A), we next sought to determine if BTC and TTC-352 could sustain the growth of T47D:A18/neo tumors in vivo. […] Additionally, no significant weight loss was observed over the seven week treatment period (FIG. 5B).

[11] = system: ERα transcriptional activity in T47D:A18/neo cells; type: cell-based
[12] = system: Ishikawa human endometrial cancer cells; conditions: references 16-19; cited from earlier work
[13] = system: MCF-7 human mammary cancer cells; conditions: references 16-19; cited from earlier work
ERα = biological target: T1, ERα (Homo sapiens, UniProt P03372); assay: ERα localization in T47D:A18/PKCα tumors by immunofluorescence; type: in vivo, mice; conditions: immunofluorescence staining of tumors
T1 sequence (P03372 1-595): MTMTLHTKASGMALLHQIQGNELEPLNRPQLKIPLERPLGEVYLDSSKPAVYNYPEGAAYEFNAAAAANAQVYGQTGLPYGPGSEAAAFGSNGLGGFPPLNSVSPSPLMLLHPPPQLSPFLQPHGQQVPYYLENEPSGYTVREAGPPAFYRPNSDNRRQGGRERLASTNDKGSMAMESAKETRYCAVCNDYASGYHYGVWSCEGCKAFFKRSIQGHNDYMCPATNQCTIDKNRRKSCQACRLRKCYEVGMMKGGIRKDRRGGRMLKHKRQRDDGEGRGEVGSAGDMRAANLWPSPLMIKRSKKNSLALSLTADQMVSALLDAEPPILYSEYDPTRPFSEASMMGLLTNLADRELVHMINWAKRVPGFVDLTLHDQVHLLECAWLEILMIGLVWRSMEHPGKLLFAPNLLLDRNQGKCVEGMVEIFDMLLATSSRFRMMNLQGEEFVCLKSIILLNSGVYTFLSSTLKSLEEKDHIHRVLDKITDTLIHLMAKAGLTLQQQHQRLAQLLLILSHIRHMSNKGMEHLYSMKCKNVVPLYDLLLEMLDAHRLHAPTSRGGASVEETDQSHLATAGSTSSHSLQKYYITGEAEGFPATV
Method: Tumor immunofluorescence confocal microscopy and co-localization analysis. Tumor sections (4 μm) were cut from paraffin blocks and prepared for IF staining by deparaffinization and rehydration. Antigen retrieval was performed by incubating slides in Tris-EDTA (pH=9.0) buffer at 90° C. and allowed to cool at room temperature for 45 min. Slides were blocked with antibody diluent (DAKO, Carpinteria, Calif. USA) for 20 min followed by primary antibody at 1:100 in antibody diluent for 1 h at room temperature. Slides were incubated with fluorescence-conjugated secondary antibodies at 1:100 in antibody diluent for 45 min at room temperature followed by DAPI (4′, 6-diamidino-2-phenylindole [1 μg/mL], DAKO, Carpinteria, Calif. USA) for 15 min. Slides were mounted with Vectashield mounting media (Vector Laboratories, Burlingame, Calif. USA). Confocal analysis was performed with a Zeiss LSM 510 microscope (Carl Zeiss, Incorporated, North America, Thornwood, N.Y. USA).
We have previously reported the possible involvement of an extranuclear ER in E2-induced tumor regression (11, 15).

[14] = system: ERα transcriptional activity in T47D:A18/PKCα cells; assay: ERE-luciferase reporter assay, T47D:A18/PKCα; type: cell-based; conditions: for ER agonist character in T47D:A18/PKCα cells in vitro: ERE-luciferase, 1 nM, 10 nM, 100 nM
[15] = juvenile female rats, after 3 days of drug administration; cited from earlier work
uteri [16] = conditions: references 29-32, cited from earlier work
[17] = humans; cited from earlier work
T47D:A18/PKCα cells [18] = conditions: reference 11; cited from earlier work
uteri [19] = assay: Uterine weights of mice (Example 11); type: in vivo; conditions: TTC-352 1.5 mg/day

SMILES	uterine weights of ovariectomized mice (uteri [1])	T47D/PKCα xenograft tumor response [2]	T47D:A18/PKCα colony formation in MATRIGEL (T47D:A18/PKCα cells [3])	T47D:A18/neo colony growth in MATRIGEL (T47D:A18/neo cells [4])	T47D:A18/neo average tumor size (T47D:A18/neo tumors) [cm^2]	T47D-Tam1 xenograft tumor response [5]	T47D:A18/PKCα tumor regression (T47D:A18/PKCα tumors) [%]	effect on the proliferation of T47D:A18/neo cells relative to E2 (T47D:A18/neo cells [8])	proliferation of T47D:A18/PKCα cells (DNA content) (T47D:A18/PKCα cells [9])	body weight of treated mice [10]	stimulation of growth of T47D:A18/neo xenograft tumors in vivo (T47D:A18/neo tumors)	estrogen agonist/antagonist character in Ishikawa cells [12]	potency in Ishikawa cells relative to E2 [12]	estrogen agonist/antagonist character in MCF-7 cells [13]	persistence of T47D:A18/PKCα tumor regression after end of treatment (T47D:A18/PKCα tumors)	T47D:A18/PKCα mean tumor size (T47D:A18/PKCα tumors) [cm^2]	ERα localization in regressing T47D:A18/PKCα tumors (ERα)	ER agonist character in T47D:A18/PKCα cells in vitro [14]	further results
C[C@]12CC[C@@H]3c4ccc(O)cc4CC[C@H]3[C@@H]1CC[C@@H]2O [E2, 17β-estradiol, reference compound]	significant proliferative actions	growth is inhibited by E2 treatment	inhibited	stimulated	~0.35	growth is inhibited by E2 treatment	~98												mean serum E2 level [6]: 379.5 pg/mL
CC/C(=C(\c1ccccc1)c1ccc(OCCN(C)C)cc1)c1ccccc1 [TAM, tamoxifen]	significant proliferative actions	TAM-resistant																	
Oc1ccc(-c2cc3ccc(O)cc3s2)cc1 [BTC, 2-(4-hydroxyphenyl)benzo[b]thiophen-6-ol]	no significant increase in the uterine weights		inhibited	stimulated	~0.04		~88	comparable to E2(1 nM) treatment	proliferated in the presence of BTC and TTC-352 at all concentrations tested	no effect	neither compound was able to significantly stimulate the growth	nanomolar estrogen agonists	three orders of magnitude below that of E2	estrogen agonist	sustained for at least four weeks post-treatment	~0.07	exit of ERα from the nucleus	act as ER agonists	concentration at 6 h ([7]; female, mouse, plasma, 6 h): 10 ng/mL; peak plasma concentration ([7]; at 30 min): 40 ng/mL; ERα transcriptional activity (ERE-luciferase) in T47D:A18/neo cells [11]: increase in ERα transcriptional activity; ERE-luciferase induction in T47D:A18/PKCα cells compared with T47D:A18/neo cells ([14]; 100 nM and 10 nM): more sensitive than T47D:A18/neo cells
Oc1ccc(-c2sc3cc(O)ccc3c2Oc2ccc(OCCN3CCCCC3)cc2)cc1 [DMA, Desmethylarzoxifene]																			remaining drug in plasma [15]: not observed above detection limits
O=C(c1ccc(OCCN2CCCCC2)cc1)c1c(-c2ccc(O)cc2)sc2cc(O)ccc12 [RAL, raloxifene]		caused tumor regression, however, drug withdrawal led to relapse					~50					estrogen antagonist		estrogen antagonist	failure of RAL-induced regression to persist after drug withdrawal				luminal epithelial cell thickness in ovariectomized rats (uteri [16]; doses up to 10 mg/kg/day): did not increase luminal epithelial cell thickness; uterine weight in ovariectomized rats (uteri [16]; minimally effective dose): did not increase uterine weight; oral clearance [17]: 441 kg⁻¹ h⁻¹; T47D:A18/PKCα MATRIGEL colony formation (previously reported) (T47D:A18/PKCα cells [18]): unable to inhibit MATRIGEL colony formation
Oc1ccc(Oc2sc3cc(O)ccc3c2-c2ccc(F)cc2)cc1 [TTC-352, 3-(4-fluorophenyl)-2-(4-hydroxyphenoxy)benzo[b]thiophen-6-ol]	no significant increase in the uterine weights	tumor regression comparable to that of E2-treated tumors	inhibited	stimulated	~0.1	tumor regression comparable to that of E2-treated tumors	~70	comparable to E2(1 nM) treatment	proliferated in the presence of BTC and TTC-352 at all concentrations tested	no effect	neither compound was able to significantly stimulate the growth	nanomolar estrogen agonists	three orders of magnitude below that of E2	estrogen agonist	sustained for at least four weeks post-treatment	~0.18	exit of ERα from the nucleus	act as ER agonists	ERα transcriptional activity (ERE-luciferase) in T47D:A18/neo cells ([11]; 24 hours): increase in ERα transcriptional activity; uterine weight in mice (uteri [19]): did not increase uterine weight
